# Assay results published in patent US8835429B2, “Pyrimidine compounds, their use as mTOR kinase and Pl3 kinase inhibitors, and their syntheses” (Wyeth LLC, priority 2009, dated 2014).
# Where two headings read alike, the source gives them in different places.
# Assays:
# [1] = system: human tumor xenograft models; conditions: cited from earlier work
# hSMG-1 = hSMG-1 (Homo sapiens, UniProt Q96Q15); conditions: read-out: hSMG-1 kinase activity IC50; cited from earlier work
# mTOR [2] = target: T1, mTOR (Homo sapiens, UniProt P42345); conditions: read-out: mTOR IC50; mTOR complexes (PI103), mTOR enzyme (ZSTK474); cited from earlier work
# [3] = system: acute lymphoblastic leukemia; conditions: in vivo; cited from earlier work
# PI3K-alpha = PI3K-alpha (Homo sapiens, UniProt P42336); test: PI3K-alpha fluorescence polarization assay; assay type: biochemical; conditions: 20 μM PIP2, 25 μM ATP; read-out: PI3Kα IC50
# In short: (§1)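 PIP2 (diC8) and ATP substrate with PI3K in 20 mM HEPES pH 7.5, 2 mM MgCl2, 0.05% CHAPS, 0.01% βME; 1% DMSO final; 30–60 min reaction. Stopped with EDTA plus GST-GRP (70 nM) and TAMRA probe (10 nM); FP (mP) read after 30–90 min, with no-enzyme controls.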
# PI3K-gamma = PI3K-gamma (Homo sapiens, UniProt P48736); test: PI3K-gamma fluorescence polarization assay; assay type: biochemical; conditions: 20 μM PIP2, 25 μM ATP; read-out: PI3Kγ IC50
# In short: as §1
# LNCap = test: In vitro cell growth assay (MTS), LNCap; assay type: cell-based; conditions: LNCaP, 72 h, human prostate line, three days after drug treatment
# MDA468 = test: In vitro cell growth assay (MTS), MDA468; assay type: cell-based; conditions: 72 h, human breast line MDA468, three days after drug treatment, read-out: MDA IC50
# mTOR [4] = target: T1, mTOR; test: mTOR enzyme assay (DELFIA, purified FLAG-TOR, His6-S6K substrate); assay type: biochemical; parameters: FLAG; conditions: 100 μM ATP, 2 hours
# PI3K-alpha, sequence (P42336 whole entry, species assumed): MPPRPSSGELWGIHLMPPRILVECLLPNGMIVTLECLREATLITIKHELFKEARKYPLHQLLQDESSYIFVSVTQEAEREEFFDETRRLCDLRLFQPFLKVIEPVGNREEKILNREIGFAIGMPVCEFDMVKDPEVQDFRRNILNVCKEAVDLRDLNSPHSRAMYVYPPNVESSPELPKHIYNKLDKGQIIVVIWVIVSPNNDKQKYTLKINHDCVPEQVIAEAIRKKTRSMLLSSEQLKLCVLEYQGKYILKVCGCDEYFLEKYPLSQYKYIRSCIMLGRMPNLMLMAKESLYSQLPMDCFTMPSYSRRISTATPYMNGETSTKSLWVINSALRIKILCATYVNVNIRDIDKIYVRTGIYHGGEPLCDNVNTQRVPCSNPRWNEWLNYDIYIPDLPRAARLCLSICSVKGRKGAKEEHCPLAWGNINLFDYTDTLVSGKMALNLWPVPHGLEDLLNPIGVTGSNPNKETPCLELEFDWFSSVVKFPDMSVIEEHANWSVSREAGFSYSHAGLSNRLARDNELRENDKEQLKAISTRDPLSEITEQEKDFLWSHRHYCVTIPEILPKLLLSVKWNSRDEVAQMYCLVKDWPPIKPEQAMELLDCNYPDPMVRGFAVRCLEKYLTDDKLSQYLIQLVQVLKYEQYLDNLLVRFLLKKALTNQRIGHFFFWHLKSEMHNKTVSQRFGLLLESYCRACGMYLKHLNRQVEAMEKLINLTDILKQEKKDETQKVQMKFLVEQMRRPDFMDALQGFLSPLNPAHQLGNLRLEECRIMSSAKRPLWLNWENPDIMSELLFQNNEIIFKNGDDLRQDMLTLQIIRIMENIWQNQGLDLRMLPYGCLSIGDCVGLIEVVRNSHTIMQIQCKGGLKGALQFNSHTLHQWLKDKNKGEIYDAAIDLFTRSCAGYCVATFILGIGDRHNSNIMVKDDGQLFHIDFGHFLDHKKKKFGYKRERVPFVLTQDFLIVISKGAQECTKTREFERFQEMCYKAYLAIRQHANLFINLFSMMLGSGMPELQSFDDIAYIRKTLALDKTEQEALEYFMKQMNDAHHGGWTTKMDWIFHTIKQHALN
# PI3K-alpha, sequence (P27986 whole entry partner, species assumed): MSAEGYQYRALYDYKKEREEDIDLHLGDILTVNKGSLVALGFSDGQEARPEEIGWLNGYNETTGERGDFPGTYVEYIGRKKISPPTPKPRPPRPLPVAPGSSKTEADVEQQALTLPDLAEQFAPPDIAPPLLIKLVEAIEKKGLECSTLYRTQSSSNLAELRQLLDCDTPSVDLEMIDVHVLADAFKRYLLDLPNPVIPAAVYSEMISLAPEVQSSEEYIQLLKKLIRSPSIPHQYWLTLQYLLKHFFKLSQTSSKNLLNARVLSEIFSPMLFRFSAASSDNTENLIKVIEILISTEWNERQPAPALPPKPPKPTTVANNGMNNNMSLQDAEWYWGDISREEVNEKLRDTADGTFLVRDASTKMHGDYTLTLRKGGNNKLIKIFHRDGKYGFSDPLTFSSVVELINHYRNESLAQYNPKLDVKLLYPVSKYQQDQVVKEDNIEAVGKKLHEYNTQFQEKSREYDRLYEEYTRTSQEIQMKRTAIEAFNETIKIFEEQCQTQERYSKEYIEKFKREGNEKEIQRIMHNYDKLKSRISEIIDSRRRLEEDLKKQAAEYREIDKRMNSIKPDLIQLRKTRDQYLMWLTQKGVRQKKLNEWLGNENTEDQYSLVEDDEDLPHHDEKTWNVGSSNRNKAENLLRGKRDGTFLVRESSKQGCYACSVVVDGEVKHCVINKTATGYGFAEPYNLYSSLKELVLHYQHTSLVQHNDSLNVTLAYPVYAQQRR
# PI3K-gamma, sequence (P48736 whole entry, species assumed): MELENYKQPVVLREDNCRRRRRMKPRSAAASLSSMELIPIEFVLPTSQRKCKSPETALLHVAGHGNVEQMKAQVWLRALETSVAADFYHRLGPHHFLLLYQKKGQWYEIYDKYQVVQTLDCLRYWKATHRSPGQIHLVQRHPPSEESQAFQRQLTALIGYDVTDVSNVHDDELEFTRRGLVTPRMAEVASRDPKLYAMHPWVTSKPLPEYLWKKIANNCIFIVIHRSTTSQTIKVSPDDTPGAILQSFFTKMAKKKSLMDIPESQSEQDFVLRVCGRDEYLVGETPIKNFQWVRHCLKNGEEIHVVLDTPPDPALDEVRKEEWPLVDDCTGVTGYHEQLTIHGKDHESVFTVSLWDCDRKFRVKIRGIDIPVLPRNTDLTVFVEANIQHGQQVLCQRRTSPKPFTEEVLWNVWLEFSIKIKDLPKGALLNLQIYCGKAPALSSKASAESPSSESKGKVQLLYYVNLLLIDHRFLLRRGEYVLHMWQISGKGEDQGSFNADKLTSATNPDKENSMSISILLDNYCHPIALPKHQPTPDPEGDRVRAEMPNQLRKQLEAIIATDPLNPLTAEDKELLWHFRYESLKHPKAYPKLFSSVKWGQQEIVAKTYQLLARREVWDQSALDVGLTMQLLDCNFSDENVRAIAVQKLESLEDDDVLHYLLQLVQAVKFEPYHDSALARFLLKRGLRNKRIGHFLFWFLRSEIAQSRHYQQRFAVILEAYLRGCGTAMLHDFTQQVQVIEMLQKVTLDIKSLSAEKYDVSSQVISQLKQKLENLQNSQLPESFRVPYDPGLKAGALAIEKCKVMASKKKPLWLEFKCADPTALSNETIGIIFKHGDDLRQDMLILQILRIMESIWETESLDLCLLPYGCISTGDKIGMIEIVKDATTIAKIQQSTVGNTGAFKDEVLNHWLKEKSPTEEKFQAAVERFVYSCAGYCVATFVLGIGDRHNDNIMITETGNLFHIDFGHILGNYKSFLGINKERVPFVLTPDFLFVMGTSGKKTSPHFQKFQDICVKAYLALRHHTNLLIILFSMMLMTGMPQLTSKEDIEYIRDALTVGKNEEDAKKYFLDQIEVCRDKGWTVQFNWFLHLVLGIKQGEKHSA
Structure (SMILES),IC50 (PI3K-alpha) [µM],IC50 (PI3K-gamma) [µM],IC50 (LNCap) [µM],IC50 (MDA468) [µM],IC50 (mTOR [4]) [µM],further results
"Cn1c(=O)n(-c2ccc(C(C)(C)C#N)cc2)c2c3cc(-c4cnc5ccccc5c4)ccc3ncc21 [NVP-BEZ-235, 2-methyl-2-(4-(3-methyl-2-oxo-8-(quinolin-3-yl)-2,3-dihydro-1H-imidazo[4,5-c]quinolin-1-yl)phenyl)propanenitrile]",–,–,–,–,–,activity against human tumor models ([1]; PC-3 and U-87 xenografts): demonstrated activity
COC[C@H]1OC(=O)c2coc3c2[C@@]1(C)C1=C(C3=O)[C@@H]2CCC(=O)[C@@]2(C)C[C@H]1OC(C)=O [Wortmannin],–,–,–,–,–,IC50 (hSMG-1): ~0.06 µM
"FC(F)c1nc2ccccc2n1-c1nc(N2CCOCC2)nc(N2CCOCC2)n1 [ZSTK474, 2-(2-difluoromethylbenzoimidazol-1-yl)-4,6-dimorpholino-1,3,5-triazine]",–,–,–,–,–,"tumor growth in mouse human xenograft cancer models ([1]; chronic oral administration, 400 mg/kg, A549, PC-3, WiDr): completely inhibited growth; IC50 (mTOR [2]): > 10 µM"
CO[C@H]1C[C@@H]2CC[C@@H](C)[C@@](O)(O2)C(=O)C(=O)N2CCCC[C@H]2C(=O)O[C@H]([C@H](C)C[C@@H]2CC[C@@H](OC(=O)C(C)(CO)CO)[C@H](OC)C2)CC(=O)[C@H](C)/C=C(\C)[C@@H](O)[C@@H](OC)C(=O)[C@H](C)C[C@H](C)/C=C/C=C/C=C/1C [Torisel],–,–,–,–,–,activity in NOS/SCID xenograft mouse model of acute lymphoblastic leukemia [3]: active
CN1CCN(Cc2ccc(NC(=O)Nc3ccc(-c4nc(NC5CCOCC5)cc(N5C6CCC5COC6)n4)cc3)cc2)CC1 [1-{4-[(4-methylpiperazin-1-yl)methyl]phenyl}-3-{4-[4-(3-oxa-8-azabicyclo[3.2.1]oct-8-yl)-6-(tetrahydro-2H-pyran-4-ylamino)pyrimidin-2-yl]phenyl}urea],0.931,2.18,0.04,0.065,0.0063,–
C[C@@H]1COCCN1c1cc(N2C3CCC2COC3)nc(-c2ccc(NC(=O)Nc3ccc(N4CCN(C)CC4)nc3)cc2)n1 [1-(4-{4-[(3R)-3-methylmorpholin-4-yl]-6-(3-oxa-8-azabicyclo[3.2.1]oct-8-yl)pyrimidin-2-yl}phenyl)-3-[6-(4-methylpiperazin-1-yl)pyridin-3-yl]urea],1.1,2.98,0.0035,0.008,0.0025,–
"CN(C)Cc1ccc(NC(=O)Nc2ccc(-c3nc(N4C5CCC4COC5)cc(N4C[C@@H]5C[C@H]4CO5)n3)cc2)cc1 [1-{4-[(dimethylamino)methyl]phenyl}-3-(4-{4-[(1S,4S)-2-oxa-5-azabicyclo[2.2.1]hept-5-yl]-6-(3-oxa-8-azabicyclo[3.2.1]oct-8-yl)pyrimidin-2-yl}phenyl)urea]",1.24,≥ 10,0.06,0.15,0.016,–
"Oc1cccc(-c2nc(N3CCOCC3)c3oc4ncccc4c3n2)c1 [PI103, 3-(4-(4-morpholinyl)pyrido[3′,′:4,5]furo[3,2-d]pyrimidin-2-yl)phenol]",–,–,–,–,–,"activity against human tumor models ([1]; I.P. dosing in mice, U87MG, PC3, MDA-MB-468, MDA-MB-435, HCT 116, SKOV3, IGROV-1): demonstrated activity"
CC(C)Nc1cc(N2C3CCC2COC3)nc(-c2ccc(NC(=O)Nc3cccnc3)cc2)n1 [1-(4-{4-[(1-methylethyl)amino]-6-(3-oxa-8-azabicyclo[3.2.1]oct-8-yl)pyrimidin-2-yl}phenyl)-3-pyridin-3-ylurea],4.35,≥ 10,0.045,0.1,0.0011,–
C[C@@H]1COCCN1c1cc(N2C3CCC2COC3)nc(-c2ccc(NC(=O)Nc3ccc(CN4CCN(C)CC4)cc3)cc2)n1 [1-(4-{4-[(3R)-3-methylmorpholin-4-yl]-6-(3-oxa-8-azabicyclo[3.2.1]oct-8-yl)pyrimidin-2-yl}phenyl)-3-{4-[(4-methylpiperazin-1-yl)methyl]phenyl}urea],1.3,8.48,0.006,0.012,0.0012,–
"CC(C)Nc1cc(N2C3COCC2COC3)nc(-c2ccc(NC(=O)Nc3ccncc3)cc2)n1 [1-{4-[4-(3,7-dioxa-9-azabicyclo[3.3.1]non-9-yl)-6-(isopropylamino)pyrimidin-2-yl]phenyl}-3-pyridin-4-ylurea]",1.52,9.24,0.28,0.4,0.005,–
